According to patent US8329703B2, “Pyrazole compounds” (XTL Biopharmaceuticals Ltd., priority 2005, dated 2012):
Where “and” joins values, the source holds several entries; their conditions need not be identical. Equal values may be shown once. Read-outs that look alike come from different tables or passages of the source.

Key:
[1] = system: HCV RNA (HCV Replicon) in Huh-Luc-Neo cells; experiment: HCV Replicon RNA Assay (Taqman quantitative PCR); format: cell-based; settings: 2 compound treatments over 48 h, no unit printed in table (b307 gives IC50s in μM)
Procedure: (§1) The identification of inhibitors of HCV replication and/or proliferation has been facilitated by the development of a cell based system to study HCV replication and assay for HCV inhibitors. Inhibition of HCV replication may be performed using the HCV Replicon Assay developed in the laboratories of Bartenschlager (Lohman et al, Science 285, 110-113, 1999) and Rice (Blight et al, Science 290, 1972-1974, 2000). The assay is performed using the Huh-Luc-Neo cell line (Lohman et al, Science 285, 110-113, 1999). Huh-Luc-Neo cells are a human hepatoma cell line (Huh-7) stably expressing a bi-cistronic subgenomic replicon containing the HCV IRES in which the […] of HCV had been deleted and replaced by a construct containing sequences coding for the firefly luciferase reporter gene, the neomycin selectable marker and the EMCV IRES to direct expression of a truncated HCV genome expressing the […] NS3, NS4A, NS4B, NS5A, and NS5B. HCV targets through which inhibitors could act to inhibit replication include the NS3 protease, the helicase/ATPase, NS5A, the NS5B-RNA dependent RNA polymerase, and the HCV IRES.
(§2) Expression of HCV IRES driven luciferase reporter activity and HCV RNA is measured to obtain indirect and direct measures of replication of HCV RNA respectively. Inhibitors of HCV replication and/or proliferation are determined by initially identifying molecules that inhibit expression of the HCV IRES driven luciferase reporter in this HCV Replicon Luciferase Assay. Cell viability assays and control cell based luciferase assays are then run on hits identified in the HCV Replicon Luciferase Assay to eliminate cytoxic compounds and non-specific compounds which act by inhibiting the luciferase enzyme.
(§3) Day 0, Cell Seeding and Compound Treatment: Huh-Luc-Neo Cells are seeded at 25,000/well in an opaque-walled 96 plate with Growth Medium (DMEM phenol red free+PS+2 mM glutamine; 100 μl/well). The compounds to be tested are added to the experimental wells (10 μl/well at 10× assay concentration) and the cells are then incubated (5% CO2, 37° C.).
Day 1, Media Change and Compound Treatment: 24 hours after the initial compound treatment the cell culture media is aspirated from the wells and fresh Growth Medium is added (DMEM phenol red free+PS+2 mM glutamine; 100 μl/well). The compounds to be tested are then added to the appropriate experimental wells (10 μl/well at 10× assay concentration) and the cells are then incubated (5% CO2, 37° C.) for an additional 24 hrs.
Day 2, RNA Isolation and cDNA Synthesis: The cells are washed with 1× Phosphate Buffered Saline (PBS) once.
(§4) Day 3, Quantitative PCR Based Measurement of HCV RNA (Taqman Assay): Quantitative PCR analysis to measure HCV RNA expression from cDNA synthesized on Day 2 is performed using the ABI 9700 HT Sequence Detection System (Applied Biosystems) as previously described (Lohman et al, Science 285, 110-113, 1999). The data is analyzed and IC50s are determined using GraphPad Prism 4 software. Hits validated in the Replicon RNA Assay have IC50s<8.0 μM and show <30% inhibition of Cell Viability at a compound concentration of 50 μM (Cell Titer Glow Assay, cell viability assay conditions identical to HCV Replicon RNA Assay conditions).

[2] = system: HCV Replicon (HCV IRES driven luciferase reporter) in Huh-Luc-Neo cells; experiment: HCV Replicon Luciferase Assay; format: cell-based; settings: 48 h, Huh-Luc-Neo cells, no unit printed in table (b301 gives IC50s in μM), read-out: Luciferase IC50
Procedure: as §1, §2
as §3, with “C.) for 48 h.” for “C.).”
(§5) Day 2, Reagent Preparation and Luciferase Assay: The Bright-Glo Luciferase Assay Buffer (Promega) is thawed and equilibrated to room temperature prior to use. The lyophilized Bright-Glo Luciferase Assay Substrate is equilibrated to room temperature prior to use. 10 ml of Bright-Glo Luciferase Assay Buffer is transferred to 1 vial of Bright-Glo Luciferase Assay Substrate bottle and mixed by gently with a Vortex. 100 ul of Bright-Glo Luciferase Assay reagent (Bright-Glo Luciferase Assay Buffer+Bright-Glo Luciferase Assay Substrate Mixture) is added to each well. The well contents are mixed for 5 min. on an orbital shaker at room temperature to induce cell lysis and the luminescence is then measured using a luminometer. The data is analyzed and IC50s are determined using GraphPad Prism 4 software. Hits validated in the Replicon Luciferase assay have IC50s<8.0 μM and show <30% inhibition of Cell Viability at a compound concentration of 100 μM (Cell Titer Glow Assay, cell viability assay conditions identical to HCV Replicon Luciferase Assay conditions).

Huh-Luc-Neo cells = experiment: Cell Titer-Glo Cell Viability Assay; format: cell-based, human; settings: for Toxicity % Inhibition at 50 μM (2 doses): inhibition of cell viability at 50 μM, conditions identical to HCV Replicon RNA Assay; for Toxicity % Inhibition at 100 μM (1 dose): inhibition of cell viability at 100 μM, conditions identical to HCV Replicon Luciferase Assay (48 h)
Procedure: as §5, §4
Day 0, Cell Seeding and Compound Treatment: Huh-Luc-Neo Cells are seeded at 25,000/well in an opaque-walled 96 plate with Growth Medium (DMEM phenol red free+PS+2 mM glutamine; 100 ul/well).
Day 2, Reagent Preparation and Assay: The CellTiter-Glo Buffer is thawed and equilibrated to room temperature prior to use. The lyophilized CellTiter-Glo Substrate is equilibrated to room temperature prior to use. 10 ml of CellTiter-Glo Buffer is transferred to 1 vial of CellTiter-Glo Substrate and mixed by gently with a Vortex. 100 μl of CellTiter-Glo Assay reagent (CellTiter-Glo Buffer+CellTiter-Glo Substrate Mixture) is added to each well. The well contents are mixed for 5 min. on an orbital shaker at room temperature to induce cell lysis and the luminescence is then measured using a luminometer.

Cn1cc(C#CC(C)(C)C)c(-c2cc([N+](=O)[O-])ccc2NCc2c(F)cccc2F)n1 [VQ_36665] was tested, and the IC50 ([1]; Hepatitis C virus, 48 h) was 0.72 µM, the IC50 ([2]; Hepatitis C virus) was 0.03 µM and the “Toxicity % Inhibition at 50 μM (2 doses)” value (Huh-Luc-Neo cells) was 25.6%. For the same molecule, the “Toxicity % Inhibition at 100 μM (1 dose)” value (Huh-Luc-Neo cells) was 12.8%.
For COc1ccc(C#Cc2cn(C)nc2-c2cc(Cl)c(C)cc2O)cc1 [VQ_23374], the IC50 ([1]; Hepatitis C virus, 48 h) was 5.7 µM, the IC50 ([2]; Hepatitis C virus) was 3.92 µM and the “Toxicity % Inhibition at 50 μM (2 doses)” value (Huh-Luc-Neo cells) was 13.0%. The “Toxicity % Inhibition at 100 μM (1 dose)” value (Huh-Luc-Neo cells) was 19.1%.
In the case of Cc1cnc(Nc2ccc([N+](=O)[O-])cc2-c2nn(C)cc2C#CC(C)(C)C)s1 [VQ_36669], the IC50 ([1]; Hepatitis C virus, 48 h) is reported as 0.9 µM, the IC50 ([2]; Hepatitis C virus) is reported as 0.01 µM and the “Toxicity % Inhibition at 50 μM (2 doses)” value (Huh-Luc-Neo cells) is reported as 26.7%. The “Toxicity % Inhibition at 100 μM (1 dose)” value (Huh-Luc-Neo cells) was 23.2%.
For CC(=O)c1ccc(N2CCN(C(=O)c3c(C#CC(C)(C)C)c(-c4cc(Cl)ccc4O)nn3C)CC2)cc1 [VQ_36649], the IC50 ([1]; Hepatitis C virus, 48 h) was 0.4 µM, the IC50 ([2]; Hepatitis C virus) was 9.7 µM and the “Toxicity % Inhibition at 50 μM (2 doses)” value (Huh-Luc-Neo cells) was 12.1%. The “Toxicity % Inhibition at 100 μM (1 dose)” value (Huh-Luc-Neo cells) was 7.3%.
Cn1cc(C#CC(C)(C)C)c(-c2cc(Cl)ccc2O)n1 [VQ_23322] was tested, and the IC50 ([1]; Hepatitis C virus, 48 h) was 2.47 µM, the IC50 ([2]; Hepatitis C virus) was 2 µM and the “Toxicity % Inhibition at 50 μM (2 doses)” value (Huh-Luc-Neo cells) was 1.5%. For the same molecule, the “Toxicity % Inhibition at 100 μM (1 dose)” value (Huh-Luc-Neo cells) was 21.5%.
For Cn1cc(C#CC(C)(C)C)c(-c2cc([N+](=O)[O-])ccc2NCc2ccc(I)cc2)n1 [VQ_36893], the IC50 ([2]; Hepatitis C virus) was 0.09 µM and the “Toxicity % Inhibition at 100 μM (1 dose)” value (Huh-Luc-Neo cells) was 16.6%.
For Cn1cc(C#CC(C)(C)C)c(-c2cc(C#CCC3CCCCC3)ccc2O)n1 [VQ_34395], the IC50 ([1]; Hepatitis C virus, 48 h) was 0.68 µM, the IC50 ([2]; Hepatitis C virus) was 3.7 µM and the “Toxicity % Inhibition at 50 μM (2 doses)” value (Huh-Luc-Neo cells) was 23.6%. The “Toxicity % Inhibition at 100 μM (1 dose)” value (Huh-Luc-Neo cells) was 45.4%.
With Cn1cc(C#CC(C)(C)C)c(-c2cc([N+](=O)[O-])ccc2NCc2ccccc2C#N)n1 [VQ_36885] the IC50 ([2]; Hepatitis C virus) was 0.03 µM and the “Toxicity % Inhibition at 100 μM (1 dose)” value (Huh-Luc-Neo cells) was 35.7%.
Cn1cc(C#CC(C)(C)C)c(-c2cc([N+](=O)[O-])ccc2NCc2c(F)c(F)c(F)c(F)c2F)n1 [VQ_36894] was tested, and the IC50 ([2]; Hepatitis C virus) was 0.12 µM and the “Toxicity % Inhibition at 100 μM (1 dose)” value (Huh-Luc-Neo cells) was 12.5%.
For Cn1cc(C#CC(C)(C)C)c(-c2cc([N+](=O)[O-])ccc2NC(=O)COc2ccccc2)n1 [VQ_36907], the IC50 [2] was 0.2 µM and the “Toxicity % Inhibition at 100 μM (1 dose)” value (Huh-Luc-Neo cells) was 34.7%.
Cn1cc(C#CC(C)(C)C)c(-c2cc([N+](=O)[O-])ccc2NCc2cccc3ccccc23)n1 [VQ_36895] was tested, and the IC50 ([2]; Hepatitis C virus) was 0.1 µM and the “Toxicity % Inhibition at 100 μM (1 dose)” value (Huh-Luc-Neo cells) was 10.4%.
With Cn1cc(C#CC(C)(C)C)c(-c2cc([N+](=O)[O-])ccc2NC(=O)c2cc(C(F)(F)F)ccc2F)n1 [VQ_36905] the IC50 ([2]; Hepatitis C virus) was 1.63 µM and the “Toxicity % Inhibition at 100 μM (1 dose)” value (Huh-Luc-Neo cells) was 10.9%.
COCC#Cc1cn(C)nc1-c1cc(Cl)c(C)cc1O [VQ_23382] was tested, and the IC50 [1] was 2.26 µM, the IC50 ([1]; Hepatitis C virus, 48 h) was 3.03 µM and the “Toxicity % Inhibition at 100 μM (1 dose)” value (Huh-Luc-Neo cells) was 18.5% and 16.2%.
COc1ccc(S(=O)(=O)Nc2ccc([N+](=O)[O-])cc2-c2nn(C)cc2C#CC(C)(C)C)cc1 [VQ_36877] was tested, and the IC50 ([2]; Hepatitis C virus) was 0.2 µM and the “Toxicity % Inhibition at 100 μM (1 dose)” value (Huh-Luc-Neo cells) was 10.9%.
